{"source": "patent US9670157B2", "about": "“Benzylamine derivatives” (KALVISTA PHARMACEUTICALS LIMITED, priority 2013, dated 2017)", "key": {"Human plasma kallikrein": {"target": "Human plasma kallikrein (Homo sapiens (Human), UniProt P03952)", "sequence (P03952 391-638)": "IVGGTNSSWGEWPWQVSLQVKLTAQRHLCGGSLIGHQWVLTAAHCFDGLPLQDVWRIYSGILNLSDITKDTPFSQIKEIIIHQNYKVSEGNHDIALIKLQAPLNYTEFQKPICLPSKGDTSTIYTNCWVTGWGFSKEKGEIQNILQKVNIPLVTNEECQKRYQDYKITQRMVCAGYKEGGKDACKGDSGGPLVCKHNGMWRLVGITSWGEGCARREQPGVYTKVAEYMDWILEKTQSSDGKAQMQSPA", "sequence (P03952 20-390 partner)": "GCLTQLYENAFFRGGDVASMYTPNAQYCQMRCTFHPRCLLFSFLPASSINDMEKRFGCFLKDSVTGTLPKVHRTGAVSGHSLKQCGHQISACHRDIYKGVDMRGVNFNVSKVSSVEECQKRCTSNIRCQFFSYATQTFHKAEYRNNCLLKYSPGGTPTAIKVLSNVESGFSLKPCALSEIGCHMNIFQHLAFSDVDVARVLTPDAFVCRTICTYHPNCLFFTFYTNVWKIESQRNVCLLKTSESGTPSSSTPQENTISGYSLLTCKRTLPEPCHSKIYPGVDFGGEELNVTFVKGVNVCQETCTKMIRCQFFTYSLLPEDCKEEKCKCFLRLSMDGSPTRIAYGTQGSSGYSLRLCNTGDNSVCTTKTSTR", "experiment": "Determination of the IC50 for Plasma Kallikrein", "type": "biochemical", "conditions": "37° C., fluorogenic substrate H-DPro-Phe-Arg-AFC; read-out: IC50 (human PKal)", "procedure": "Human plasma kallikrein (Protogen) was incubated at 37° C. with the fluorogenic substrate H-DPro-Phe-Arg-AFC and various concentrations of the test compound. Residual enzyme activity (initial rate of reaction) was determined by measuring the change in optical absorbance at 410 nm and the IC50 value for the test compound was determined."}, "Human KLK1": {"target": "Human KLK1 (Homo sapiens (Human), UniProt P06870)", "sequence (P06870 25-262)": "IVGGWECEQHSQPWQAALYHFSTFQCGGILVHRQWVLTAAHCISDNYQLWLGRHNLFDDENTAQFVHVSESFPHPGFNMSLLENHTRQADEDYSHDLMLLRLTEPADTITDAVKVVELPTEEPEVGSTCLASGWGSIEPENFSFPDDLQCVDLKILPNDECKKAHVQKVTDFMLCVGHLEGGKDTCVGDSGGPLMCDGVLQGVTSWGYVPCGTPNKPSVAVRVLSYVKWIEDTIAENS", "experiment": "Determination of the IC50 for KLK1", "type": "biochemical", "conditions": "37° C., fluorogenic substrate H-DVal-Leu-Arg-AFC", "procedure": "KLK1 inhibitory activity in vitro was determined using standard published methods (see e.g. Johansen et al., Int. J. Tiss. Reac. 1986, 8, 185; Shori et al., Biochem. Pharmacol., 1992, 43, 1209; Stürzebecher et al., Biol. Chem. Hoppe-Seyler, 1992, 373, 1025). Human KLK1 (Callbiochem) was incubated at 37° C. with the fluorogenic substrate H-DVal-Leu-Arg-AFC and various concentrations of the test compound. Residual enzyme activity (initial rate of reaction) was determined by measuring the change in optical absorbance at 410 nm and the IC50 value for the test compound was determined."}}}
{"smiles": "Cc1cnn(Cc2ccc(Cn3cc(C(=O)NCc4ccc(C5(N)CC5)cc4)cn3)cc2)c1", "note": "[Example 103, 1-[4-(4-Methyl-pyrazol-1-ylmethyl)-benzyl]-1H-pyrazole-4-carboxylic acid 4-(1-amino-cyclopropyl)-benzylamide]", "values": [{"measurement": "IC50", "setting": "Human plasma kallikrein", "result": 0.694, "unit": "µM"}, {"measurement": "IC50", "setting": "Human KLK1", "result": "> 10", "unit": "µM"}]}
{"smiles": "Cc1cc(C(=O)NCc2ccc(CN)cc2)c(C)n1Cc1ccc(OCc2ccccc2)cc1", "note": "[Example 60, 1-(4-Benzyloxy-benzyl)-2,5-dimethyl-1H-pyrrole-3-carboxylic acid 4-aminomethyl-benzylamide]", "values": [{"measurement": "IC50", "setting": "Human plasma kallikrein", "result": 3.12, "unit": "µM"}, {"measurement": "IC50", "setting": "Human KLK1", "result": "> 10", "unit": "µM"}]}
{"smiles": "Cc1cc(C(=O)NCc2ccc(CN)cc2)c(C)n1Cc1cccc(-c2ccccc2)c1", "note": "[Example 69, 1-Biphenyl-3-ylmethyl-2,5-dimethyl-1H-pyrrole-3-carboxylic acid 4-aminomethyl-benzylamide]", "values": [{"measurement": "IC50", "setting": "Human plasma kallikrein", "result": 0.689, "unit": "µM"}, {"measurement": "IC50", "setting": "Human KLK1", "result": "> 10", "unit": "µM"}]}
{"smiles": "Cc1oc(-c2ccccc2)nc1Cn1c(C)cc(C(=O)NCc2ccc(CN)cc2)c1C", "note": "[Example 19, 2,5-Dimethyl-1-(5-methyl-2-phenyl-oxazol-4-ylmethyl)-1H-pyrrole-3-carboxylic acid 4-aminomethyl-benzylamide]", "values": [{"measurement": "IC50", "setting": "Human plasma kallikrein", "result": 0.768, "unit": "µM"}, {"measurement": "IC50", "setting": "Human KLK1", "result": "> 10", "unit": "µM"}]}
{"smiles": "Cc1cnn(Cc2ccc(Cn3cc(C(=O)NCc4ccc(CN)c(F)c4)c(C(F)(F)F)n3)cc2)c1", "note": "[Example 117, 1-[4-(4-Methyl-pyrazol-1-ylmethyl)-benzyl]-3-trifluoromethyl-1H-pyrazole-4-carboxylic acid 4-aminomethyl-3-fluoro-benzylamide]", "values": [{"measurement": "IC50", "setting": "Human plasma kallikrein", "result": 0.051, "unit": "µM"}, {"measurement": "IC50", "setting": "Human KLK1", "result": "> 10", "unit": "µM"}]}
{"smiles": "CCn1c(C(=O)NCc2ccc(C3(N)CC3)cc2)cc(C)c1Cc1ccc(Cn2ccccc2=O)cc1", "note": "[Example 93, 1-Ethyl-4-methyl-5-[4-(2-oxo-2H-pyridin-1-ylmethyl)-benzyl]-1H-pyrrole-2-carboxylic acid 4-(1-amino-cyclopropyl)-benzylamide]", "values": [{"measurement": "IC50", "setting": "Human plasma kallikrein", "result": 2.85, "unit": "µM"}, {"measurement": "IC50", "setting": "Human KLK1", "result": "> 10", "unit": "µM"}]}
{"smiles": "CCn1c(C(=O)NCc2ccc(CN)cc2C)cc(C)c1Cc1ccc(Cn2cc(C)cn2)cc1", "note": "[Example 99, 1-Ethyl-4-methyl-5-[4-(4-methyl-pyrazol-1-ylmethyl)-benzyl]-1H-pyrrole-2-carboxylic acid 4-aminomethyl-2-methyl-benzylamide]", "values": [{"measurement": "IC50", "setting": "Human plasma kallikrein", "result": 0.038, "unit": "µM"}, {"measurement": "IC50", "setting": "Human KLK1", "result": "> 10", "unit": "µM"}]}
{"smiles": "Cc1cc(C(=O)NCc2ccc(CN)cc2)c(-c2ccccc2)n1Cc1ccccc1", "note": "[Example 57, 1-Benzyl-5-methyl-2-phenyl-1H-pyrrole-3-carboxylic acid 4-aminomethyl-benzylamide]", "values": [{"measurement": "IC50", "setting": "Human plasma kallikrein", "result": 7.18, "unit": "µM"}, {"measurement": "IC50", "setting": "Human KLK1", "result": "> 10", "unit": "µM"}]}
{"smiles": "Cc1cc(C(=O)NCc2ccc(CN)cc2)c(C)n1Cc1cccc(-c2cccnc2)n1", "note": "[Example 17, 1-[2,3′]Bipyridinyl-6-ylmethyl-2,5-dimethyl-1H-pyrrole-3-carboxylic acid 4-aminomethyl-benzylamide]", "values": [{"measurement": "IC50", "setting": "Human plasma kallikrein", "result": 0.492, "unit": "µM"}, {"measurement": "IC50", "setting": "Human KLK1", "result": "> 10", "unit": "µM"}]}
{"smiles": "Cc1cc(CNC(=O)c2cc(C)n(Cc3csc(-c4ccccc4)n3)c2C)ccc1CN", "note": "[Example 46, 2,5-Dimethyl-1-(2-phenyl-thiazol-4-ylmethyl)-1H-pyrrole-3-carboxylic acid 4-aminomethyl-3-methyl-benzylamide]", "values": [{"measurement": "IC50", "setting": "Human plasma kallikrein", "result": 1.16, "unit": "µM"}, {"measurement": "IC50", "setting": "Human KLK1", "result": 4.89, "unit": "µM"}]}
{"smiles": "Cc1cc(C(=O)NCc2ccc(CN)cc2C(F)(F)F)c(C)n1Cc1csc(-c2ccccc2)n1", "note": "[Example 50, 2,5-Dimethyl-1-(2-phenyl-thiazol-4-ylmethyl)-1H-pyrrole-3-carboxylic acid 4-aminomethyl-2-trifluoromethyl-benzylamide]", "values": [{"measurement": "IC50", "setting": "Human plasma kallikrein", "result": 0.056, "unit": "µM"}, {"measurement": "IC50", "setting": "Human KLK1", "result": "> 10", "unit": "µM"}]}
{"smiles": "CCn1c(C(=O)NCc2ccc(C3(N)CC3)cc2)cc(C)c1Cc1ccc(Cn2cc(C)cn2)cc1", "note": "[Example 100, 1-Ethyl-4-methyl-5-[4-(4-methyl-pyrazol-1-ylmethyl)-benzyl]-1H-pyrrole-2-carboxylic acid 4-(1-amino-cyclopropyl)-benzylamide]", "values": [{"measurement": "IC50", "setting": "Human plasma kallikrein", "result": 2.32, "unit": "µM"}, {"measurement": "IC50", "setting": "Human KLK1", "result": "> 10", "unit": "µM"}]}
{"smiles": "Cc1cc(C(=O)NCc2ccc(CN)cc2)c(C)n1Cc1cc(-c2ccncc2)cs1", "note": "[Example 14, 2,5-Dimethyl-1-(4-pyridin-4-yl-thiophen-2-ylmethyl)-1H-pyrrole-3-carboxylic acid 4-aminomethyl-benzylamide]", "values": [{"measurement": "IC50", "setting": "Human plasma kallikrein", "result": 2.29, "unit": "µM"}, {"measurement": "IC50", "setting": "Human KLK1", "result": 6.37, "unit": "µM"}]}
